Test results reported in patent US5968751A, “Method for detecting the presence of protein C antibody in a fluid sample” (The Scripps Research Institute, priority 1997, dated 1999).
Where two headings read alike, the source gives them in different places. No end group written: not given here.

What was measured:
Format in all cases: biochemical
tenase = molecular target: T1, tenase (Homo sapiens, UniProt P00740); experiment: tenase assay (Factor Xa generation); conditions: read-out: IC50 inhibition of tenase
T1 construct: 30 μl of 3.5 nM factor IXaβ (Enzyme Research Labs) in BBS+OV; purchased Enzyme Research Labs (factor IXaβ, factor X); Armour Pharmaceutical, Chicago (Monoclate P)
Experimental: The tenase assay was conducted both in the presence and absence of Factor VIIIa. The procedure for the tenase assay varied depending on this variable and is described hereafter.
Peptides prepared in Example 1 were dissolved in water and then 1/2 into 50 mM Barbital, 200 mM NaCl, 0.2% NaN3, 2.5 mg/ml Ovalbumin (5 times recrystallized, salt free, from American Biorganics Inc., New York, pH=7.5). […]. Before using them, they were made 250 μM into BBs +1.25 mg/ml Ovalbumin (BBS+OV) containing CaCl2 for a final concentration of 25 mM and they were preincubated for 10 minutes at 37° C. These vesicles were allowed to cool to room temperature before being added to the reaction mixture. Monoclate P (Armour Pharmaceutical, Chicago) 114 U VIII:C/ml frozen in water was thawed at 37° C. and immediately diluted to 6 U/ml into BBS+OV (22° C.). A 0.35 nM thrombin-containing solution (Enzyme Research Labs., Southbend, Ind.) was prepared by admixing 1/100 volume of stock solution containing 35 nM in BBS+OV, and maintained for 3 minutes at 22° C. Thrombin activity was stopped by adding 1/100 volume of a 50 μM stock solution in 1 mM HCl of Phe-Pro-Arg-Chloromethyl ketone (PPACK, Bachem Feinchmikallen AG, Bubendorf, Switzerland). […] The thrombin treated Monoclate P was used immediately in the Xa generation assay.
For the assay, 30 μl of peptide dilutions or BBS+OV as 0 μM peptide control were admixed with 30 μl of thrombin-treated Monoclate P and maintained 10 minutes at 22° C. Then 30 μl of Cacl2 -phospholipid vesicles prepared as described above were added, followed immediately by 30 μl of 3.5 nM factor IXaβ (Enzyme Research Labs) in BBS+OV. The reaction was started by adding 30 μl of 250 nM factor X (Enzyme Research Labs) in BBS+OV. All reagents were at 22° C.
Aliquots of 20 μl were drawn at time 0, 1, 2, 3, 4 and 5 minutes of maintenance at 22° C. and diluted to 160 μl of 50 mM TrisHCl, 100 mM NaCl, 5 mM EDTA and 0.1 mg/ml Ovalbumin pH=8.0. Once all aliquots were drawn, 20 μl 2.0 mM S-2765 were added and the increase of A 405 at 22° C. was recorded in a model EL 312 Microplate Biokinetics Reader (BIO-TEK Instruments Inc., Vermont).
No amidolytic activity was observed when factor X was omitted from the reaction mixture.
Phospholipid vesicles prepared as described above were admixed with BBS+OV containing CaCl2 to obtain final concentrations of 312.5 μM vesicles and 20 mM CaCl2, and were premaintained for 10 minutes at 37° C. Before admixing, all the reagents were maintained for 5 minutes in a 37° C. waterbath.
For the assay, 100 μl of the phospholipid CaCl2 mix were admixed with 100 μl of peptide dilutions in BBS+OV or BBS+OV (as 0 μM peptide control) and 25 μl of 100 nM factor IXaβ in BBS+OV. The reaction was started immediately by adding 25 μl of 10 μM factor X in BBS+OV. All experiments were done at 37° C.
Aliquots of 40 μl were drawn at time 0, 5, 10, 15, 20 and 25 minutes of incubation at 37° C. and diluted to 140 μl 50 mM TrisHCl, 100 mM NaCl, 10 mM EDTA, and 1.25 mg/ml Ovalbumin pH=8.0. Once all aliquots were drawn, 20 μl 20.0 mM S-2765 were added and the increase of A 405 at 22° C. was recorded in a model EL 312 Microplate Biokinetics Reader.

Factor IXa = Factor IXa (Homo sapiens, UniProt P00740); experiment: Factor IXa-1 Stage clotting assay
Experimental: The Factor IXa-1 Stage assay was conducted essentially as the Factor Xa-1 Stage clotting assay above, except that Factor Xa was omitted, and Factor IXa was added in its place. In that assay, the IC50 for peptides X404-418, X415-429, IX395-409, IX400-414, IX315-330, and IX321-335 were 50, 30, 25, 50, 30 and 30.

Factor Xa = molecular target: T2, Factor Xa (Homo sapiens, UniProt P00742); experiment: Factor Xa clotting activity in NHP without added APC (Factor Xa-1 Stage clotting assay)
T2 construct: purchased Enzyme Research Laboratories, Southbend, Ind

APC = APC (Homo sapiens, UniProt P04070); experiment: APTT and Xa-1-stage coagulation assays, inhibition of APC anticoagulant activity; parameters: Protein C consists of a 155 amino acid residue light chain and a 262 amino acid residue heavy chain; from tissue; host or cells: human plasma factor IX concentrate; conditions: read-out: IC90 ** μM (concentration of peptide that inhibits 90% of APC anticoagulant activity)
Experimental: The effect of the synthetic peptides on APC anticoagulant activity were determined using the APTT assay in the presence of either normal citrate anticoagulated plasma (NHP) or protein S depleted plasma (PSDP). The assays were performed essentially as described. See Marlar et al., Blood, 59:1067-1072 […]; Suzuki et al., J. Biol. Chem., 258:163-168 (1983); Gruber et al., Blood, 73:639-642 (1989); Ohlin et al., Biochem., 29:644-651 (1990). NHP was purchased from George King Bio-Medical, Inc. (Overland Park, Kans.). PSDP was prepared from a normal human citrate-anticoagulated plasma pool from ten healthy donors. Protein S was immunodepleted from the NHP by immunoaffinity chromatography of NHP over an anti-protein S antibody column to form PSDP. The anti-protein S antibody column was prepared by coupling 100 mg of a monoclonal, high-affinity, calcium-independent anti-PS antibody, designated S7, to 30 ml of CNBr-activated Sepharose 4B (Pharmacia) as described in Example 2cl).
For the APTT assay, APC was prepared as described in Example 2c2). […] The concentration of the APC used in the assay was initially optimized with respect to the sensitivity of the assay towards APC-induced prolongation of clotting time compared to clotting time without APC.
Once the optimal concentration of APC was determined, peptides from the heavy and light chains of PC and control scrambled peptides listed below in Example 5a2) in Tables 6 and 7 were then separately admixed for a final concentration of 500 μM with 10 nM APC in 100 μl of TBS-BSA at pH 7.4 to form peptide-APC admixtures. Peptides were prepared as described in Example 1. The resulting admixtures were maintained for ten minutes at 37° C. Separate aliquots of peptides maintained under the same conditions in the absence of APC served as controls for the inhibitory effect of synthetic peptides on APC anticoagulant activity. After the maintenance period, 100 μl of NHP and 100 μl APTT-reagent Thrombosil (Ortho Diagnostics, Raritan, N.J.) were admixed into each peptide admixture and maintained for 200 seconds at 37° C. to form a pre-coagulation admixture. In some experiments, PSDP was used in the place of NHP to determine the effect of Protein S on the assay system. Coagulation was then initiated by the admixture of 100 μl of 30 mM CaCl2 in TBS prewarmed to 37° C. to each of the pre-coagulation admixtures. The time for clot formation was measured by an Electra 700 Automatic Coagulation Timer (Medical Laboratory Automation, Inc., Mount Vernon, N.Y.). Each peptide's effect was determined in duplicate.
For peptides at a concentration of 500 μM that inhibited at least 50% of APC anticoagulant activity, analysis of dose-response was subsequently conducted.
For testing the inhibition of the synthetic peptides on APC activity described above, Xa-1-stage coagulation assays were also performed as described. See Seegers et al., Thrombosis Res., 13:233-243 (1978); Marlar et al., supra; and Walker et al., J. Biol. Chem., 265:1484-1489 (1990).

T1 sequence (P00740 47-191): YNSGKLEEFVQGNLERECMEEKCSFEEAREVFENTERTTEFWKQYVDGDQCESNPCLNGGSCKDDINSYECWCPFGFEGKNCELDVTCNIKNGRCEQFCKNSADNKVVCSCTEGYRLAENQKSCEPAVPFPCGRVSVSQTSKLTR
T1 sequence (P00740 227-461): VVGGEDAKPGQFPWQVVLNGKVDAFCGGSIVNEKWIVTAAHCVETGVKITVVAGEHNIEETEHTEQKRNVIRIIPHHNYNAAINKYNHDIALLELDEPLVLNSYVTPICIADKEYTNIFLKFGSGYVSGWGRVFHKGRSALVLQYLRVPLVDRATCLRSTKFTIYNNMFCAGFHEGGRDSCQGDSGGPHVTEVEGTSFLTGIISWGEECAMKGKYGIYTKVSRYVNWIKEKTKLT
Chain of Factor IXa (P00740 47-191 limits assumed): as the sequence (P00740 47-191) above
Chain of Factor IXa (P00740 227-461 limits assumed): as the sequence (P00740 227-461) above
T2 sequence (P00742 41-179 limits assumed): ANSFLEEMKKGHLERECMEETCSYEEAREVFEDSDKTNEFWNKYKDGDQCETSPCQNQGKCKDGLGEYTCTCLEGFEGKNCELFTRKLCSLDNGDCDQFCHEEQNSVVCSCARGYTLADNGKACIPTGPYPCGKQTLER
T2 sequence (P00742 235-488 limits assumed): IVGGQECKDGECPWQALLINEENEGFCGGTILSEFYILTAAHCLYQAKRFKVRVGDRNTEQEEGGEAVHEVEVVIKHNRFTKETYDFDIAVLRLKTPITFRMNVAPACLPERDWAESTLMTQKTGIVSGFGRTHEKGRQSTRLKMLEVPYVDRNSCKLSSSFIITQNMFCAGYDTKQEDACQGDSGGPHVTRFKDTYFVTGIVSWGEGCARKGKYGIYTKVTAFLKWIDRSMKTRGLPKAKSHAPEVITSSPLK
Chain of APC (P04070 43-197 limits assumed): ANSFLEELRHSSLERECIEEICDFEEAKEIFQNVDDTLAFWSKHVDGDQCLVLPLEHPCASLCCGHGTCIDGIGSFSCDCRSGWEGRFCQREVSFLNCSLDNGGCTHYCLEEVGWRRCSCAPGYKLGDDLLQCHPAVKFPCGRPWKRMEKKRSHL
Chain of APC (P04070 212-450 limits assumed): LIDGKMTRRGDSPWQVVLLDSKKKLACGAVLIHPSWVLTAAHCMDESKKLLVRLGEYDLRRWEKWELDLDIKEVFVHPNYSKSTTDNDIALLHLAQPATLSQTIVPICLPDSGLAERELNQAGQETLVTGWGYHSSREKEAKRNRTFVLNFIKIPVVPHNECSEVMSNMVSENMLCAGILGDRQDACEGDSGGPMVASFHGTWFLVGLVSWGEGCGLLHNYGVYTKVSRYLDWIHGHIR

Row | Substance | IC50 (tenase; presence of Factor VIIIa) | IC50 (Factor IXa) | IC50 (Factor Xa) | IC50 (tenase; absence of VIIIa) | IC90 (APC)
1 | LVLQYLRVPLVDRAT-NH2 [IX321-335, Leu-Val-Leu-Gln-Tyr-Leu-Arg-Val-Pro-Leu-Val-Asp-Arg-Ala-Thr] | 100 to 140 µM | 30 µM | – | – | –
2 | EKGRQSTRLKMLEVPY-NH2 [X329-344, Glu-Lys-Gly-Arg-Gln-Ser-Thr-Arg-Leu-Lys-Met-Leu-Glu-Val-Pro-Tyr] | – | – | 500 µM | – | –
3 | GKGQPSVLQVVNLPI-NH2 [PT473-487, Gly-Lys-Gly-Gln-Pro-Ser-Val-Leu-Gln-Val-Val-Asn-Leu-Pro-Ile] | – | – | 25 µM | – | –
4 | VTAFLKWIDRSMKTR-NH2 [X415-429, Val-Thr-Ala-Phe-Leu-Lys-Trp-Ile-Asp-Arg-Ser-Met-Lys-Thr-Arg] | ~45 µM | 30 µM | 115 µM | – | –
5 | NLKETWTANVGKGQP [PT463-478] | – | – | > 500 µM | – | –
6 | ARKGKYGIYTKVTAF-NH2 [X404-418, Ala-Arg-Lys-Gly-Lys-Tyr-Gly-Ile-Tyr-Thr-Lys-Val-Thr-Ala-Phe] | ~150 µM | 50 µM | 50 µM | – | –
7 | KVSRYVNWIKEKTKL-NH2 [IX400-414, Lys-Val-Ser-Arg-Tyr-Val-Asn-Trp-Ile-Lys-Glu-Lys-Thr-Lys-Leu] | 100 to 140 µM | 50 µM | – | – | –
8 | QVVNLPIVERPVSKD-NH2 [PT481-495, Gln-Val-Val-Asn-Leu-Pro-Ile-Val-Glu-Arg-Pro-Val-Ser-Lys-Asp] | – | – | > 500 µM | – | –
9 | YGFYTHVFRLKKWIQ-NH2 [PT557-571, Tyr-Gly-Phe-Tyr-Thr-His-Val-Phe-Arg-Leu-Lys-Lys-Trp-Ile-Gln] | – | – | 50 µM | – | –
10 | YGIYTKVSRYVNWIK-NH2 [IX395-409, Tyr-Gly-Ile-Tyr-Thr-Lys-Val-Ser-Arg-Tyr-Val-Asn-Trp-Ile-Lys] | ~6 µM | 25 µM | – | 40 to 60 µM | –
11 | VLNFIKIPVVPHNEC-NH2 [PC317-331] | – | – | – | – | 500 µM
12 | HKGRSALVLQYLRVPL-NH2 [IX315-330, His-Lys-Gly-Arg-Ser-Ala-Leu-Val-Leu-Gln-Tyr-Leu-Arg-Val-Pro-Leu] | ~2 µM | 30 µM | – | 40 to 60 µM | –
